SMILES strings stand for the structures. pEC50: −log10 of the molar value. Like-named read-outs stand apart in the source and are kept apart here.

Format in all cases: cell-based
The subject of data set [1] is RSV-Fluc (Recombinant Respiratory Syncytial virus strain A2 containing the firefly luciferase reporter). The data set is described as follows: microbe, parasite or virus in culture. To be noted: read-out: RSV-Fluc EC50 (nM, NHBE).
The subject of data set [2] is SARS-CoV-2. The data set is described as follows: microbe, parasite or virus in culture.
The subject of data set [3] is MT-4 cells. The data set is described as follows: MT4 cytotoxicity analysis (CellTiter-Glo). An outline of the steps:
(§1)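 MT-4 cells were exposed in quadruplicate to 3-fold serial compound dilutions (DMSO stocks 2.5 uM to 10 mM) for five days at 37 °C. Viability was read by CellTiter-Glo luminescence.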
A general note: Cellular ATP, detected with luciferase, serves as a proxy for viable cell number.

The nature of data set [4]: MT4 cytotoxicity analysis (CellTiter-Glo). To be noted: human, MT4 CC50 (nM). In outline:
as §1

Where [5] appears, read: human respiratory syncytial virus, NHBE, 72 h.
The mark [6] stands for this setting: Severe acute respiratory syndrome coronavirus 2, 48 h.
Where [7] appears, read: MT-4 cells, five days, CellTiter-Glo, read-out: MT4 CC50.

On to `CCCCCCCCCCCCCCCCCCOC[C@@H](OCc1ccccc1)C(C)OP(=O)(O)OC[C@H]1O[C@@](C#N)(c2ccc3c(N)ncnn23)[C@H](O)[C@@H]1O` (single isomer, unassigned) [Example 12], for which the EC50 in data set [1] (setting [5]) worked out at 240 nM. Further, the pEC50 in data set [2] (setting [6]) is 5.08. Besides, half-maximal cytotoxicity in data set [3] (human, 5 days) (CC50) was put at 10 µM.
As to `CCCCCCCCCCCCCCCCCCOC[C@@H](OCc1ccccc1)C(C)OP(=O)(O)OC[C@H]1O[C@@](C#N)(c2ccc3c(N)ncnn23)[C@H](O)[C@@H]1O` (single isomer, unassigned) [Example 13], the EC50 in data set [1] (NHBE cells, RSV-Fluc MOI 0.1, three days, luciferase readout) is 240 nM. The pEC50 in data set [2] is 5.02. This molecule also displayed a CC50 in data set [3] (human, 5 days) of 29 µM.
In the case of `CCCCCCCCCCCCCCCCCCOC[C@H](COP(=O)(O)OC[C@H]1O[C@@](C#N)(c2ccc3c(N)ncnn23)[C@H](O)[C@@H]1O)N(C)Cc1cc(F)cc(C#N)c1` [Example 6, ((2R,3S,4R,5R)-5-(4-aminopyrrolo[2,1-f][1,2,4]triazin-7-yl)-5-cyano-3,4-dihydroxytetrahydrofuran-2-yl)methyl ((R)-2-((3-cyano-5-fluorobenzyl)(methyl)amino)-3-(octadecyloxy)propyl) hydrogen phosphate], the EC50 in data set [1] (setting [5]) was 570 nM. Also, the pEC50 in data set [2] (setting [6]) was 5.00. Also, half-maximal cytotoxicity in data set [3] (human, 5 days) (CC50) was put at 50 µM.
Regarding `CCCCCCCCCCCCCCCCCCOC[C@H](COP(=O)(O)OC[C@H]1O[C@@](C#N)(c2ccc3c(N)ncnn23)[C@H](O)[C@@H]1O)OC(=O)c1ccccc1` [Example 17, (2R)-1-(((((2R,3S,4R,5R)-5-(4-aminopyrrolo[2,1-f][1,2,4]triazin-7-yl)-5-cyano-3,4-dihydroxytetrahydrofuran-2-yl)methoxy)(hydroxy)phosphoryl)oxy)-3-(octadecyloxy)propan-2-yl benzoate], the EC50 in data set [1] (setting [5]) came out at 120 nM. The pEC50 in data set [2] (setting [6]) was 6.05. For the same molecule, in data set [3] (human, 5 days), the CC50 came out at 50 µM.
`CCCCCCCCCOCCCOP(=O)(O)OC[C@H]1O[C@@](C#N)(c2ccc3c(N)ncnn23)[C@H](O)[C@@H]1O` [Example 25, ((2R,3S,4R,5R)-5-(4-Aminopyrrolo[2,1-f][1,2,4]triazin-7-yl)-5-cyano-3,4-dihydroxytetrahydrofuran-2-yl)methyl (3-(nonyloxy)propyl) hydrogen phosphate]: the EC50 in data set [1] (setting [5]) came out at 5000 nM. The same molecule gave a pEC50 in data set [2] (setting [6]) of 5.00. Further, the CC50 in data set [3] (setting [7]) was determined as 50 µM.
As for `CCCCCCCCOCCOP(=O)(O)OC[C@H]1O[C@@](C#N)(c2ccc3c(N)ncnn23)[C@H](O)[C@@H]1O` [Example 26, ((2R,3S,4R,5R)-5-(4-Aminopyrrolo[2,1-f][1,2,4]triazin-7-yl)-5-cyano-3,4-dihydroxytetrahydrofuran-2-yl)methyl (2-(octyloxy)ethyl) hydrogen phosphate], the EC50 in data set [1] (setting [5]) is 5000 nM. Moreover, the pEC50 in data set [2] (setting [6]) is 5.00. Further, the CC50 in data set [3] (setting [7]) was found to be 50 µM.
`CCCCCCCCCCCOCCOP(=O)(O)OC[C@H]1O[C@@](C#N)(c2ccc3c(N)ncnn23)[C@H](O)[C@@H]1O` [Example 27, ((2R,3S,4R,5R)-5-(4-Aminopyrrolo[2,1-f][1,2,4]triazin-7-yl)-5-cyano-3,4-dihydroxytetrahydrofuran-2-yl)methyl (2-(undecyloxy)ethyl) hydrogen phosphate]: the EC50 in data set [1] (setting [5]) came to 5000 nM. The molecule further had a pEC50 in data set [2] (setting [6]) of 5.00. In addition, in data set [3] (setting [7]), the CC50 amounted to 50 µM.
Take `CCCCCCCCCCCCCCCCCCOC[C@H](COP(=O)(O)OC[C@H]1O[C@@](C#N)(c2ccc3c(N)ncnn23)[C@H](O)[C@@H]1O)NC(=O)c1ccccc1` [Example 30, ((2R,3S,4R,5R)-5-(4-aminopyrrolo[2,1-f][1,2,4]triazin-7-yl)-5-cyano-3,4-dihydroxytetrahydrofuran-2-yl)methyl ((R)-2-benzamido-3-(octadecyloxy)propyl) hydrogen phosphate]: in data set [1] (setting [5]), the EC50 is 130 nM. This molecule showed a pEC50 in data set [2] (setting [6]) of 5.08. In data set [3] (human, 5 days), this molecule registered a half-maximal cytotoxic concentration (CC50) of 50 µM.
Take `CCCCCCCCCCCCCCCCCCOC[C@H](COP(=O)(O)OC[C@H]1O[C@@](C#N)(c2ccc3c(N)ncnn23)[C@H](O)[C@@H]1O)Oc1ccccc1C(=O)O` [Example 38, 2-(((2R)-1-(((((2R,3S,4R,5R)-5-(4-aminopyrrolo[2,1-f][1,2,4]triazin-7-yl)-5-cyano-3,4-dihydroxytetrahydrofuran-2-yl)methoxy)(hydroxy)phosphoryl)oxy)-3-(octadecyloxy)propan-2-yl)oxy)benzoic acid]: in data set [1] (setting [5]), the EC50 is 160 nM. For the same molecule, it took 50 µM to reach half-maximal cytotoxicity in data set [3] (human, 5 days) (CC50).
As for `CCCCCCCCCCCCCCCCCCOC[C@H](COP(=O)(O)OC[C@H]1O[C@@](C#N)(c2ccc3c(N)ncnn23)[C@H](O)[C@@H]1O)NC(=O)c1cccc(C#N)c1` [Example 57, ((2R,3S,4R,5R)-5-(4-aminopyrrolo[2,1-f][1,2,4]triazin-7-yl)-5-cyano-3,4-dihydroxytetrahydrofuran-2-yl)methyl ((R)-2-(3-cyanobenzamido)-3-(octadecyloxy)propyl) hydrogen phosphate], the half-maximal effective concentration (EC50) in data set [1] (setting [5]) amounted to 330 nM. The pEC50 in data set [2] (setting [6]) is 5.31. The same molecule returned a CC50 in data set [3] (human, 5 days) of 50 µM.
Consider `CCCCCCCCCCCCSCCCOP(=O)(O)OC[C@H]1O[C@@](C#N)(c2ccc3c(N)ncnn23)[C@H](O)[C@@H]1O` [Example 63, [(2R,3S,4R,5R)-5-(4-Aminopyrrolo[2,1-f][1,2,4]triazin-7-yl)-5-cyano-3,4-dihydroxy-tetrahydrofuran-2-yl]methyl 3-dodecylsulfanylpropyl hydrogen phosphate], for which the EC50 in data set [1] (setting [5]) is 470 nM. Further, in data set [2] (setting [6]), the pEC50 is 5.00. Further, the CC50 in data set [3] (human, 5 days) is 50 µM.
For `CCCCCCCCCCCCCCCCSCCCOP(=O)(O)OC[C@H]1O[C@@](C#N)(c2ccc3c(N)ncnn23)[C@H](O)[C@@H]1O` [Example 65, [(2R,3S,4R,5R)-5-(4-Aminopyrrolo[2,1-f][1,2,4]triazin-7-yl)-5-cyano-3,4-dihydroxy-tetrahydrofuran-2-yl]methyl 3-hexadecylsulfanylpropyl hydrogen phosphate], the midpoint of cytotoxicity in data set [3] (human, 5 days), the CC50, lay at 50 µM.
With `CCCCCCCCCCCCCCCCCCOC[C@H](CO[P@@](=O)(S)OC[C@H]1O[C@@](C#N)(c2ccc3c(N)ncnn23)[C@H](O)[C@@H]1O)OCc1ccccc1` [Example 67, O-(((2R,3S,4R,5R)-5-(4-aminopyrrolo[2,1-f][1,2,4]triazin-7-yl)-5-cyano-3,4-dihydroxytetrahydrofuran-2-yl)methyl) O—((R)-2-(benzyloxy)-3-(octadecyloxy)propyl) O-hydrogen (R)-phosphorothioate], the EC50 in data set [1] (setting [5]) stood at 190 nM. In addition, in data set [2] (setting [6]), the pEC50 is 6.92. The molecule further came in with a CC50 in data set [3] (human, 5 days) of 26 µM.
Regarding `CCCCCCCCCCCCCCCCCCC[C@H](COCc1ccc(C#N)cc1F)OP(=O)(O)OC[C@H]1O[C@@](C#N)(c2ccc3c(N)ncnn23)[C@H](O)[C@@H]1O` [Example 69, ((2R,3S,4R,5R)-5-(4-aminopyrrolo[2,1-f][1,2,4]triazin-7-yl)-5-cyano-3,4-dihydroxytetrahydrofuran-2-yl)methyl ((R)-1-((4-cyano-2-fluorobenzyl)oxy)henicosan-2-yl) hydrogen phosphate], the EC50 in data set [1] (setting [5]) was 400 nM. In data set [2] (setting [6]), this molecule had a pEC50 of 5.00. In data set [4], this molecule registered a CC50 at 5 days of 48000 nM.
For `CCCCCCCCCCCCCCCCCCC[C@H](COP(=O)(O)OC[C@H]1O[C@@](C#N)(c2ccc3c(N)ncnn23)[C@H](O)[C@@H]1O)OCc1ccc(C#N)c(F)c1` [Example 71, ((2R,3S,4R,5R)-5-(4-aminopyrrolo[2,1-f][1,2,4]triazin-7-yl)-5-cyano-3,4-dihydroxytetrahydrofuran-2-yl)methyl ((R)-2-((4-cyano-3-fluorobenzyl)oxy)henicosyl) hydrogen phosphate], the EC50 in data set [1] (setting [5]) came out at 68 nM. The same molecule had a pEC50 in data set [2] (setting [6]) of 7.10. The same molecule returned a CC50 at 5 days in data set [4] of 900 nM.
Turning to `CCCCCCCCCCCCCCCCCCC[C@H](COP(=O)(O)OC[C@H]1O[C@@](C#N)(c2ccc3c(N)ncnn23)[C@H](O)[C@@H]1O)OCc1ccccc1` [Example 72, ((2R,3S,4R,5R)-5-(4-aminopyrrolo[2,1-f][1,2,4]triazin-7-yl)-5-cyano-3,4-dihydroxytetrahydrofuran-2-yl)methyl ((R)-2-(benzyloxy)henicosyl) hydrogen phosphate], in data set [1] (setting [5]), the EC50 was found to be 190 nM. For the same molecule, the pEC50 in data set [2] (setting [6]) is 5.96. In data set [4], this molecule showed a CC50 at 5 days of 3800 nM.
For `CCCCCCCCCCCCCCC#CC[C@H](COP(=O)(O)OC[C@H]1O[C@@](C#N)(c2ccc3c(N)ncnn23)[C@H](O)[C@@H]1O)OCc1ccccc1` [Example 73, ((2R,3S,4R,5R)-5-(4-aminopyrrolo[2,1-f][1,2,4]triazin-7-yl)-5-cyano-3,4-dihydroxytetrahydrofuran-2-yl)methyl ((R)-2-(benzyloxy)nonadec-4-yn-1-yl) hydrogen phosphate], the EC50 in data set [1] (setting [5]) stood at 58 nM. This molecule gave a pEC50 in data set [2] (setting [6]) of 6.37. In data set [4], this molecule yielded a cytotoxic concentration (CC50) at 5 days of 3500 nM.
Consider `CCCCCCCCCCCCCCC#CC[C@H](COP(=O)(O)OC[C@H]1O[C@@](C#N)(c2ccc3c(N)ncnn23)[C@H](O)[C@@H]1O)OCc1cc(F)cc(C#N)c1` [Example 74, ((2R,3S,4R,5R)-5-(4-aminopyrrolo[2,1-f][1,2,4]triazin-7-yl)-5-cyano-3,4-dihydroxytetrahydrofuran-2-yl)methyl ((R)-2-((3-cyano-5-fluorobenzyl)oxy)nonadec-4-yn-1-yl) hydrogen phosphate], for which the EC50 in data set [1] (setting [5]) stood at 24 nM. For the same molecule, in data set [2] (setting [6]), the pEC50 is 6.72. The same molecule returned a CC50 at 5 days in data set [4] of 300 nM.
As for `CCCCCCCCCCCCCCC#CC[C@H](COP(=O)(O)OC[C@H]1O[C@@](C#N)(c2ccc3c(N)ncnn23)[C@H](O)[C@@H]1O)OCc1ccc(C#N)c(F)c1` [Example 75, ((2R,3S,4R,5R)-5-(4-aminopyrrolo[2,1-f][1,2,4]triazin-7-yl)-5-cyano-3,4-dihydroxytetrahydrofuran-2-yl)methyl ((R)-2-((4-cyano-3-fluorobenzyl)oxy)nonadec-4-yn-1-yl) hydrogen phosphate], in data set [1] (setting [5]), the EC50 is 17 nM. In data set [2] (setting [6]), this molecule showed a pEC50 of 7.14. In data set [4], this molecule showed a CC50 at 5 days of 230 nM.

One may read the EC50 as the midpoint of the concentration-response curve. A word on the pEC50: it is −log10 of the EC50, conventionally taken in molar units. Read a high pEC50 as a low EC50. One may read the CC50 as the concentration that lowers cell viability or growth by half.
